{
  "source": "patent US20240360082A1",
  "about": "“SUBSTITUTED PYRIDONE COMPOUNDS USEFUL TO TREAT ORTH[…]” (priority 2021, published 2024)",
  "data": [
    {"molecular_target": "influenza A virus minigenome (PB2, PB1, PA, NP proteins) (UniProt P04665)", "sequence (P04665 whole entry)": "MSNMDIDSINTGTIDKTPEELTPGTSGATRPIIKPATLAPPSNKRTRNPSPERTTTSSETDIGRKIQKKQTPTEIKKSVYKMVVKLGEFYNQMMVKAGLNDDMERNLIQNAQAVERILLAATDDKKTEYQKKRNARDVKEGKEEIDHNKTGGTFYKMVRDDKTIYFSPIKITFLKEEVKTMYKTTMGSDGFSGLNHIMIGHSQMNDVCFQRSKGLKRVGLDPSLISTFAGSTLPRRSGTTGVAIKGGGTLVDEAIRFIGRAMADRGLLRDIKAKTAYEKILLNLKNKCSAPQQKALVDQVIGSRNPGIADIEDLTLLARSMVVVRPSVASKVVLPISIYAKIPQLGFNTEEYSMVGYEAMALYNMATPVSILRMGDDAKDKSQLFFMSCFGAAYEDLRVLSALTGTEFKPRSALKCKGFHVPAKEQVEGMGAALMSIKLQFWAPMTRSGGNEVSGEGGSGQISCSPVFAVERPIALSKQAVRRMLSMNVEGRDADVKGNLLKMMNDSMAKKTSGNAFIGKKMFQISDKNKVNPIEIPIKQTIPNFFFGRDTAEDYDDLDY", "type": "cell-based", "details": "read-out: RNP_ Hubei B IC50", "units": {"IC50": "µM"}, "values": [
      {"compound": "C[C@]1(CO)COC[C@@H](COc2ccc(-c3cc(C(N)=O)c(=O)[nH]c3C(F)(F)F)cc2)O1", "note": "[Example 433, 5-(4-(((2S,6S)-6-(hydroxymethyl)-6-methyl-1,4-dioxan-2-yl)methoxy)phenyl)-2-oxo-6-(trifluoromethyl)-1,2-dihydropyridine-3-carboxamide]", "IC50": "5 to 10"},
      {"compound": "CC(C)n1ncc2c1COCC2COc1ccc(-c2cc(C(N)=O)c(=O)[nH]c2C(F)(F)F)cc1", "note": "(single isomer, unassigned) [Example 294, 5-(4-((1-isopropyl-1,4,5,7-tetrahydropyrano[3,4-c]pyrazol-4-yl)methoxy)phenyl)-2-oxo-6-(trifluoromethyl)-1,2-dihydropyridine-3-carboxamide]", "IC50": "5 to 10"},
      {"compound": "COCCn1cc(COc2ccc(-c3cc(C(N)=O)c(=O)[nH]c3C(F)(F)F)cc2)cn1", "note": "[Example 218, 5-(4-((1-(2-methoxyethyl)-1H-pyrazol-4-yl)methoxy)phenyl)-2-oxo-6-(trifluoromethyl)-1,2-dihydropyridine-3-carboxamide]", "IC50": "25 to 50"},
      {"compound": "NC(=O)c1cc(-c2ccc(OCc3ccnn3CC3CC3)cc2)c(C(F)(F)F)[nH]c1=O", "note": "[Example 265, 5-(4-((1-(cyclopropylmethyl)-1H-pyrazol-5-yl)methoxy)phenyl)-2-oxo-6-(trifluoromethyl)-1,2-dihydropyridine-3-carboxamide]", "IC50": "25 to 50"},
      {"compound": "NC(=O)c1cc(-c2ccc(OCC3CO[C@@H]4[C@H](O3)C4(F)F)cc2)c(C(F)(F)F)[nH]c1=O", "note": "(stereo partly drawn) [Example 390, 5-(4-((cis-7,7-difluoro-2,5-dioxabicyclo[4.1.0]heptan-3-yl)methoxy)phenyl)-2-oxo-6-(trifluoromethyl)-1,2-dihydropyridine-3-carboxamide]", "IC50": "1 to 5"},
      {"compound": "NC(=O)c1cc(-c2ccc(OCC3COCC(F)(F)C3)cc2)c(C(F)(F)F)[nH]c1=O", "note": "(single isomer, unassigned) [Example 336, 5-(4-((5,5-difluorotetrahydro-2H-pyran-3-yl)methoxy)phenyl)-2-oxo-6-(trifluoromethyl)-1,2-dihydropyridine-3-carboxamide]", "IC50": "5 to 10"},
      {"compound": "Cc1onc(-c2ccncc2)c1COc1ccc(-c2cc(C(N)=O)c(=O)[nH]c2C(F)(F)F)cc1", "note": "[Example 270, 5-(4-((5-methyl-3-(pyridin-4-yl)isoxazol-4-yl)methoxy)phenyl)-2-oxo-6-(trifluoromethyl)-1,2-dihydropyridine-3-carboxamide]", "IC50": "25 to 50"},
      {"compound": "Cn1nc(C2CC2)cc1COc1ccc(-c2cc(C(N)=O)c(=O)[nH]c2C(F)(F)F)cc1", "note": "[Example 263, 5-(4-((3-cyclopropyl-1-methyl-1H-pyrazol-5-yl)methoxy)phenyl)-2-oxo-6-(trifluoromethyl)-1,2-dihydropyridine-3-carboxamide]", "IC50": "25 to 50"},
      {"compound": "CC(C)n1cc2c(n1)COCC2COc1ccc(-c2cc(C(N)=O)c(=O)[nH]c2C(F)(F)F)cc1", "note": "(single isomer, unassigned) [Example 295, 5-(4-((2-isopropyl-2,4,5,7-tetrahydropyrano[3,4-c]pyrazol-4-yl)methoxy)phenyl)-2-oxo-6-(trifluoromethyl)-1,2-dihydropyridine-3-carboxamide]", "IC50": "5 to 10"}
    ]},
    {"molecular_target": "influenza A virus minigenome (PB2, PB1, PA, NP proteins) (UniProt P04665)", "type": "cell-based", "details": "read-out: RNP_Hubei B", "units": {"IC50": "µM"}, "values": [
      {"compound": "NC(=O)c1cc(-c2ccc(CN3C[C@H]4CC[C@@H](C3)O4)cc2)c(C(F)(F)F)[nH]c1=O", "note": "[Example 31, 5-(4-(((1R,5S)-8-oxa-3-azabicyclo[3.2.1]octan-3-yl)methyl)phenyl)-2-oxo-6-(trifluoromethyl)-1,2-dihydropyridine-3-carboxamide]", "IC50": "1 to 5"},
      {"compound": "NC(=O)c1cc(-c2ccc(OCC3CCOCC3)cc2)c(C(F)(F)F)[nH]c1=O", "note": "[Example 56, 2-oxo-5-(4-((tetrahydro-2H-pyran-4-yl)methoxy)phenyl)-6-(trifluoromethyl)-1,2-dihydropyridine-3-carboxamide]", "IC50": "25 to 50"},
      {"compound": "Cn1nccc1COc1ccc(-c2cc(C(N)=O)c(=O)[nH]c2C(F)(F)F)cc1", "note": "[Example 126, 5-(4-((1-methyl-1H-pyrazol-5-yl)methoxy)phenyl)-2-oxo-6-(trifluoromethyl)-1,2-dihydropyridine-3-carboxamide]", "IC50": "25 to 50"}
    ]}
  ]
}
